According to patent publication US8088818B2, “Catechol-based derivatives for treating or preventing diabetics” (National Taiwan University, priority 2006, dated 2012):

Legend:
Normal rats = experiment: Blood sugar lowering in normal rats after oral administration; assay type: in vivo, rat; conditions: 0.5 mg/kg oral; for % decrease in plasma glucose: Table 14; for Pre-treatment Plasma glucose: pre-treatment (baseline)
Procedure: (a) Male Wistar rats are provided from the National Laboratory Animal Breeding and Research Center (Taipei, Taiwan), each of whose weight is about 200-250 grams, and the average age thereof is above 8 weeks. They were housed under conditions of constant temperature (25±1[…]) and controlled illumination (light time and dark time are respectively 12 hours). Food and water were available.
(§1) (d) The administration: Dissolve the medicine equivalently in deionized water, and then administrate the mentioned solution into the normal and diabetic rats by an orally perfusion. Keep with the desired concentration of the perfusion amount by taking suitable amount of the medicine solution according to the weight of the different animal.
(§2) The rats to be experimented should undergo a starvation for 8-12 hours overnight. Next day, the rats are anesthetized with 30 mg/kg pentobarbital by injecting into the abdominal cavity. After the rats fall asleep, fix the rats on the board with the rubber band. Open the groin, find the veins, bleed 0.1 ml blood from an empty stomach, and then feed the medicine into the body of the rats by taking orally. After 90 minutes, bleed and perform a centrifugation (13,000 rpm, 5 minutes) to separate the serum and the plasma. Take the 10 μl supernatant of the serum and add 1 ml reagent of the glucose kit thereinto by gently mixing. React for 5 minutes at 37 °C, followed by detecting the value of the blood sugar by means of BST330 based on the different absorption level. […] The value of the blood sugar (mg/dL) is calculated by comparing the level of redness with contrasting the standard curve.
(§3) (The value of blood sugar at postadministration)−(The value of blood sugar at preadministration)/(The value of blood sugar at preadministration)×100%
The results of the experiments are presented in the average value±the standard error (mean±SE), and the variations therebetween are evaluated according to the Student's t-test, while the variations thereamong are evaluated according to one-way ANOVA and Bonferroni's t-test, wherein P<0.05 is deemed to have apparent differences.

coronary artery = experiment: Flow rate of the coronary artery in the isolated perfused rat heart (Langendorff); conditions: for effect on coronary flow rate (in words): Wistar rats, Tables 15 and 16; for coronary flow: isolated Wistar rat heart
Procedure: Each of the male Wistar rats weighs about 200-250 grams, and is anesthetized with 25 mg/kg pentobarbital and 16 mg/kg heparin by injecting into the abdominal cavity. After falling asleep, separate the cervical vertebra and immediately take the heart out hanging on the constant pouring pressure circulation instrument (Langendorff, AD Instruments Pty Ltd, ML870B2) and fill a 37[…] pouring solution of 95% of oxygen and 5% of carbon dioxide with the artery (119.7 mM NaCl, 23.8 mM NaHCO3, 5.6 mM glucose, 1.2 mM CaCl2, 1.1 mM MgCl2, 0.3 mM NaH2PO4, and 5.0 mM KCl), which washes the heart and clean out the blood water by pouring in a reverse direction. The rate of the reverse pouring is 10 ml/min, followed by maintaining the pouring pressure of the coronary artery at 80 mmHg. After balancing for thirty minutes, measure the rate of the pouring solution flowing in the heart, and observe the change of the rate the pouring solution flowing in the heart while the testing drug is added.

Type 2 diabetic rats = experiment: Blood sugar lowering in insulin-induced type 2 diabetic rats after oral administration; assay type: in vivo, rat; conditions: type II diabetic rats, 1 mg/kg, p.o., 90 minutes
Procedure: (c) Insulin-induced type 2 diabetic rats: the abdominal cavity of the male Wistar rats of 12 weeks age are injected with 0.5 IU/kg long-term insulin (MonotardR HM) three times a day for fourteen days. Then, the 10 mg/kg tolbutamide, an anti-diabetic drug of sulfonylurea class, is injected into the abdominal cavity. Phlebotomize 0.1 ml blood respectively at the preadministration and the postadministration of sixty minutes, and calculate the reduced value of the blood sugar. If the variation of the ability of lowering blood sugar is less than 10%, which is deemed as the type II (insulin resistance) diabetes rat.
as §1, §2, §3

[1] = literature; cited from earlier work

| Structure (SMILES) | % decrease in plasma glucose (Normal rats) [%] | Post-treatment Plasma glucose (Normal rats) [mg/dL] | Pre-treatment Plasma glucose (Normal rats) [mg/dL] | effect on coronary flow rate (in words) (coronary artery) | coronary flow (coronary artery; conc. 0 (baseline)) [mL/min] | coronary flow (coronary artery; conc. 1 (unit printed .[…]M)) [mL/min] | coronary flow (coronary artery; conc. 3 (unit printed .[…]M)) [mL/min] | coronary flow (coronary artery; conc. 0.1 (unit printed .[…]M)) [mL/min] | coronary flow (coronary artery; conc. 0.3 (unit printed .[…]M)) [mL/min] | coronary flow (coronary artery; conc. 10 (unit printed .[…]M)) [mL/min] | other results |
| --- | --- | --- | --- | --- | --- | --- | --- | --- | --- | --- | --- |
| CCCCNC(=O)C=Cc1ccc2c(c1)OCO2 | – | – | – | – | – | – | – | – | – | – | melting point: 82 to 83 °C |
| O=C(/C=C/c1ccc2c(c1)OCO2)NCCc1ccccc1 [615 (37)] | 23.9 ± 2.1 | 105.2 ± 3.5 | 138.3 ± 4.1 | – | – | – | – | – | – | – | – |
| COc1ccc(CCNC(=O)C=Cc2ccc(O)c(O)c2)cc1OC [638 A] | 18.1 ± 2.9 | 83.6 ± 1.9 | 102.5 ± 2.4 | – | – | – | – | – | – | – | – |
| O=C(C=Cc1ccc(O)c(O)c1)NCCc1ccc(Br)cc1 [638 B] | 21.4 ± 3.0 | 76.8 ± 4.1 | 98.1 ± 5.2 | – | – | – | – | – | – | – | – |
| CC(=O)Oc1ccc(C=CC(=O)NCCc2ccccc2)cc1OC(C)=O [639 B] | 28.1 ± 3.3 | 84.0 ± 5.0 | 116.7 ± 2.8 | capable of increasing the coronary flow rate | 7.4 ± 0.2 | 9.0 ± 0.4 | 11.6 ± 0.6 | – | – | – | – |
| O=C(C=Cc1ccc(O)c(O)c1)Nc1ccc(O)cc1 [Compound 638H] | – | – | – | – | 9.0 ± 0.3 | 9.1 ± 0.5 | 10.1 ± 0.7 | 9.0 ± 0.5 | 8.9 ± 0.5 | 13.1 ± 1.0 | – |
| O=C(C=Cc1ccc(O)c(O)c1)NCc1cccc(F)c1 [Compound 638I] | – | – | – | capable of increasing the coronary flow rate | 7.4 ± 0.7 | 7.6 ± 0.8 | 8.2 ± 0.8 | 7.1 ± 0.5 | 7.1 ± 0.5 | 9.3 ± 0.7 | – |
| COc1cc(/C=C/C(=O)NCCc2ccccc2)ccc1O [Compound 640] | – | – | – | capable of increasing the coronary flow rate | 9.7 ± 1.3 | 10.3 ± 1.5 | 11.0 ± 1.5 | 10.1 ± 1.5 | 10.2 ± 1.4 | 14.6 ± 2.2 | – |
| CN(Cc1ccccc1)C(=O)C=Cc1ccc(O)c(O)c1 [Compound 642A] | – | – | – | capable of increasing the coronary flow rate | 10.0 ± 0.7 | 16.8 ± 1.6 | 19.8 ± 2.1 | 12.9 ± 0.4 | 14.2 ± 0.8 | – | – |
| CN(CCc1ccccc1)C(=O)C=Cc1ccc(O)c(O)c1 [Compound 642B] | – | – | – | capable of increasing the coronary flow rate | 9.8 ± 2.1 | 12.8 ± 1.9 | 17.4 ± 1.9 | 9.8 ± 2.1 | 10.4 ± 1.7 | 23.2 ± 1.7 | – |
| CN(CCOc1ccc(CC2SC(=O)NC2=O)cc1)c1ccccn1 (centres unmarked) [Rosiglitazone, reference compound] | – | – | – | – | – | – | – | – | – | – | % decrease in plasma glucose (Type 2 diabetic rats): 15.6 ± 6.3% |
| O=C(O)/C=C/c1ccc(O)c(O)c1 [caffeic acid] | – | – | – | – | – | – | – | – | – | – | lowering blood sugar (earlier studies) [1]: effective in lowering blood sugar |
| COc1cc(CNC(=O)CCCC/C=C/C(C)C)ccc1O [capsaicin] | – | – | – | – | – | – | – | – | – | – | lowering blood sugar (earlier studies) [1]: effective in lowering blood sugar |
